The record followed here is patent US8410151B2, “Aminomethyl benzene derivatives” (Actelion Pharmaceuticals Ltd, priority 2009, dated 2013).

The target of one experiment is recombinant human S1P1 receptor (Homo sapiens, UniProt P21453). Kind of experiment: GTPγS assay to determine EC50 values. The class given is biochemical. Particulars: 35S-GTPγS binding, CHO membranes, human S1P1. The protocol: GTPγS binding assays are performed in 96 well microtiter plates (Nunc, 442587) in a final volume of 200 μl, using membrane preparations of CHO cells expressing recombinant human S1P1 receptor. Assay conditions are 20 mM Hepes (Fluka, 54461), 100 mM NaCl (Fluka, 71378), 5 mM MgCl2 (Fluka, 63064), 0.1% BSA (Calbiochem, 126609), 1 μM GDP (Sigma, G-7127), 2.5% DMSO (Fluka, 41644), 50 pM ^355-GTPγS (Amersham Biosciences, SJ1320). The pH is 7.4. Test compounds are dissolved and diluted in 100% DMSO and pre-incubated at room temperature for 30 min in 150 μl of the above assay buffer, in the absence of ^355-GTPγS. After addition of 50 μl of ^355-GTPγS, the assay is incubated for 1 h at rt. The assay is terminated by transfer of the reaction mixture to a Multiscreen plate (Millipore, MAHFC1H60) using a cell harvester from Packard Biosciences, and the plates are washed with ice-cold 10 mM Na2HPO4/NaH2PO4 (70%/30%), dried, sealed at the bottom and, after addition of 25 μl MicroScint20 (Packard Biosciences, order #6013621), sealed on the top. Membrane-bound ^35S-GTPγS is measured with a TopCount from Packard Biosciences.
recombinant human S1P1 receptor, sequence (P21453 whole entry): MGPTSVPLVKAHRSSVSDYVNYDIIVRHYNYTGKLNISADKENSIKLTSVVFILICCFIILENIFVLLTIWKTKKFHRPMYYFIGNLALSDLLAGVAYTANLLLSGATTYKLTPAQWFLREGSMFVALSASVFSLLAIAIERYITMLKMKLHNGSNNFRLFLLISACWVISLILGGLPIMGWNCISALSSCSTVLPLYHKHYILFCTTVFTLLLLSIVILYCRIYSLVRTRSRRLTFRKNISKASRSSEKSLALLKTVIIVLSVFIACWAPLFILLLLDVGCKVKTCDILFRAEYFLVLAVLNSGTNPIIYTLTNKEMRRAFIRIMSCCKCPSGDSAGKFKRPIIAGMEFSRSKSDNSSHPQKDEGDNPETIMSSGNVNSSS
EC50 is the concentration of agonist inducing 50% of the maximal specific ^35S-GTPγS binding. Specific binding is determined by subtracting non-specific binding from maximal binding. Maximal binding is the amount of cpm bound to the Multiscreen plate in the presence of 10 μM of S1P. Non-specific binding is the amount of binding in the absence of an agonist in the assay.
The EC50 is the concentration needed to bring the measured effect to its halfway point. As for `CNCc1cccc(-c2nc(-c3cc(C)c(OCC(O)CNC(=O)CO)c(C)c3)no2)c1` (racemic) [Example 1], the EC50 is greater than 10000 nM.

The same experiment, now with this note: 35S-GTPγS binding, membrane preparations of CHO cells expressing recombinant human S1P1 receptor.
On to `CCN(C)Cc1cc(C)cc(-c2nc(-c3cc(C)c(OC[C@@H](O)CNC(=O)CO)c(C)c3)no2)c1` [Example 147, N—{(S)-3-[4-(5-{3-[(ethyl-methyl-amino)-methyl]-5-methyl-phenyl}-[1,2,4]oxadiazol-3-yl)-2,6-dimethyl-phenoxy]-2-hydroxy-propyl}-2-hydroxy-acetamide], for which the EC50 was determined as 2 nM. With `CCN(C)Cc1cc(C)cc(-c2nc(-c3cc(C)c(OC[C@@H](O)CNC(=O)CO)c(Cl)c3)no2)c1` [Example 148, N—{(S)-3-[2-chloro-4-(5-{3-[(ethyl-methyl-amino)-methyl]-5-methyl-phenyl}-[1,2,4]oxadiazol-3-yl)-6-methyl-phenoxy]-2-hydroxy-propyl}-2-hydroxy-acetamide], the EC50 amounted to 1.3 nM. In the case of `CCCCN(C)Cc1cc(CCC)cc(-c2nc(-c3cc(C)c(OC[C@@H](O)CNC(=O)CO)c(CC)c3)no2)c1` [Example 62, N—{(S)-3-[4-(5-{3-[(butyl-methyl-amino)-methyl]-5-propyl-phenyl}-[1,2,4]oxadiazol-3-yl)-2-ethyl-6-methyl-phenoxy]-2-hydroxy-propyl}-2-hydroxy-acetamide], the EC50 turned out to be 3.1 nM. Same read-out and setting: in the case of `CCc1cc(CN(C)C)cc(-c2nc(-c3cc(C)c(OC[C@@H](O)CNC(=O)CO)c(CC)c3)no2)c1` [Example 49, N—((S)-3-{4-[5-(3-dimethylaminomethyl-5-ethyl-phenyl)-[1,2,4]oxadiazol-3-yl]-2-ethyl-6-methyl-phenoxy}-2-hydroxy-propyl)-2-hydroxy-acetamide] it was 3.7 nM; in that of `CCc1cc(-c2noc(-c3cc(CN(C)CC(C)C)cc(C(C)C)c3)n2)cc(C)c1OC[C@@H](O)CNC(=O)CO` [Example 73, N—{(S)-3-[2-ethyl-4-(5-{3-[(isobutyl-methyl-amino)-methyl]-5-isopropyl-phenyl}-[1,2,4]oxadiazol-3-yl)-6-methyl-phenoxy]-2-hydroxy-propyl}-2-hydroxy-acetamide], 2 nM; in that of `CCCN(C)Cc1cc(CC)cc(-c2nc(-c3cc(C)c(OC[C@@H](O)CNC(=O)CO)c(CC)c3)no2)c1` [Example 51, N—{(S)-3-[2-ethyl-4-(5-{3-ethyl-5-[(methyl-propyl-amino)-methyl]-phenyl}-[1,2,4]oxadiazol-3-yl)-6-methyl-phenoxy]-2-hydroxy-propyl}-2-hydroxy-acetamide], 2.4 nM. The same measure, in the same setting: in the case of “N-(3-{4-[5-(4-dimethylaminomethyl-3-methyl-phenyl)-[1,2,4]oxadiazol-3-yl]-2,6-dimethyl-phenoxy}-2-hydroxy-propyl)-2-hydroxy-acetamide [Example 127]” it was 8.5 nM; in that of `CCCCN(C)Cc1cc(-c2nc(-c3cc(C)c(OC[C@@H](O)CNC(=O)CO)c(CC)c3)no2)cc(C(C)C)c1` [Example 72, N—{(S)-3-[4-(5-{3-[(butyl-methyl-amino)-methyl]-5-isopropyl-phenyl}-[1,2,4]oxadiazol-3-yl)-2-ethyl-6-methyl-phenoxy]-2-hydroxy-propyl}-2-hydroxy-acetamide], 2.3 nM; in that of `CCCN(C)Cc1cc(-c2nc(-c3cc(C)c(OC[C@@H](O)CNC(=O)CO)c(CC)c3)no2)cc(C(C)C)c1` [Example 71, N—{(S)-3-[2-ethyl-4-(5-{3-isopropyl-5-[(methyl-propyl-amino)-methyl]-phenyl}-[1,2,4]oxadiazol-3-yl)-6-methyl-phenoxy]-2-hydroxy-propyl}-2-hydroxy-acetamide], 2.1 nM. Still for that read-out and setting: as for `CCCc1cc(CN(C)CCC)cc(-c2nc(-c3cc(C)c(OC[C@@H](O)CNC(=O)CO)c(CC)c3)no2)c1` [Example 61, N—{(S)-3-[2-ethyl-6-methyl-4-(5-{3-[(methyl-propyl-amino)-methyl]-5-propyl-phenyl}-[1,2,4]oxadiazol-3-yl)-phenoxy]-2-hydroxy-propyl}-2-hydroxy-acetamide], the figure is 3.6 nM. Consider `CCc1ccc(-c2nc(-c3cc(C)c(OC[C@@H](O)CNC(=O)CO)c(CC)c3)no2)cc1CN(C)C` [Example 89], for which the concentration giving a half-maximal response (EC50) turned out to be 22 nM.

For `CCCc1cc(CNCC(C)C)cc(-c2nc(-c3cc(C)c(OC[C@@H](O)CNC(=O)CO)c(CC)c3)no2)c1` [Example 58, N—[(S)-3-(2-ethyl-4-{5-[3-(isobutylamino-methyl)-5-propyl-phenyl]-[1,2,4]oxadiazol-3-yl}-6-methyl-phenoxy)-2-hydroxy-propyl]-2-hydroxy-acetamide], the EC50 is 8.4 nM. As for `CCc1cc(-c2nc(-c3cc(C)c(OC[C@@H](O)CNC(=O)CO)c(CC)c3)no2)ccc1CN1CCCC1` [Example 105, N—((S)-3-{2-ethyl-4-[5-(3-ethyl-4-pyrrolidin-1-ylmethyl-phenyl)-[1,2,4]oxadiazol-3-yl]-6-methyl-phenoxy}-2-hydroxy-propyl)-2-hydroxy-acetamide], the EC50 worked out at 8 nM. Same read-out and setting: as for `CCCCN(C)Cc1cc(CC)cc(-c2nc(-c3cc(C)c(OC[C@@H](O)CNC(=O)CO)c(CC)c3)no2)c1` [Example 52, N—{(S)-3-[4-(5-{3-[(butyl-methyl-amino)-methyl]-5-ethyl-phenyl}-[1,2,4]oxadiazol-3-yl)-2-ethyl-6-methyl-phenoxy]-2-hydroxy-propyl}-2-hydroxy-acetamide], the figure is 2 nM; as for `CCCCN(C)Cc1ccc(-c2nc(-c3cc(C)c(OC[C@@H](O)CNC(=O)CO)c(CC)c3)no2)cc1C` [Example 42, N—{(S)-3-[4-(5-{4-[(butyl-methyl-amino)-methyl]-3-methyl-phenyl}-[1,2,4]oxadiazol-3-yl)-2-ethyl-6-methyl-phenoxy]-2-hydroxy-propyl}-2-hydroxy-acetamide], 5.8 nM; as for `CCCCN(CC)Cc1cc(C)cc(-c2nc(-c3cc(C)c(OC[C@@H](O)CNC(=O)CO)c(CC)c3)no2)c1` [Example 21, N—{(S)-3-[4-(5-{3-[(butyl-ethyl-amino)-methyl]-5-methyl-phenyl}-[1,2,4]oxadiazol-3-yl)-2-ethyl-6-methyl-phenoxy]-2-hydroxy-propyl}-2-hydroxy-acetamide], 5.6 nM. For the compound `CCN(C)Cc1cc(C)cc(-c2nc(-c3cc(C)c(OC[C@@H](O)CO)c(Cl)c3)no2)c1` [Example 144, (S)-3-[2-chloro-4-(5-{3-[(ethyl-methyl-amino)-methyl]-5-methyl-phenyl}-[1,2,4]oxadiazol-3-yl)-6-methyl-phenoxy]-propane-1,2-diol], the EC50 was found to be 2 nM. Still for that read-out and setting: as for `CCc1cc(-c2nc(-c3cc(C)c(OC[C@@H](O)CNC(=O)CO)c(CC)c3)no2)ccc1CN(C)CC` [Example 100, N—{(S)-3-[2-ethyl-4-(5-{3-ethyl-4-[(ethyl-methyl-amino)-methyl]-phenyl}-[1,2,4]oxadiazol-3-yl)-6-methyl-phenoxy]-2-hydroxy-propyl}-2-hydroxy-acetamide], the figure is 1.6 nM. On the same count and under the same terms, in the case of `CCc1cc(CN(C)CC)cc(-c2nc(-c3cc(C)c(OC[C@@H](O)CNC(=O)CO)c(CC)c3)no2)c1` [Example 50, N—{(S)-3-[2-ethyl-4-(5-{3-ethyl-5-[(ethyl-methyl-amino)-methyl]-phenyl}-[1,2,4]oxadiazol-3-yl)-6-methyl-phenoxy]-2-hydroxy-propyl}-2-hydroxy-acetamide] it was 5.3 nM.
